# In patent publication US6214859A, “Ethylamine derivatives” (Fujimoto Brothers Co., Ltd., priority 1997, dated 2001):
# Legend:
# [1] = test system: dopamine release, striatum; experiment: Release of biogenic amines from brain tissue: dopamine, striatum; format: in vivo, Wistar rats
# Method: (§1) The method described in Life Sci., 56, 611-620 (1995) was used. After Wistar rats were decapitated, appropriate brain samples, which were striatun, substantia nigra, tuberculum olfactorium, locus coeruleus and raphe, were removed quickly and soaked in oxygenated (95% O2 and 5% CO2) Krebs solution at 37° C. The composition of Krebs solution was as follows in […]: NaCl 111, KCl 4.7, CaCl2 2.5, MgSO4 1.64, NaHCO3 25, KH2 PO4 1.2, glucose 11, 50 mg/l ascorbic add and 20 mg/l EDTA-2 Na. The preparations, soaked in one organ bath, were as follows: 1) four pieces of striatum (each halved), 2) four pieces of substantia nigra, 3) four pieces of tuberculum olfactorium; 4) eight pieces of locus coeruleus; 5) eight pieces of raphe. After incubation of the appropriate tissue for 20 min, the Krebs solution was replaced, the tissue soaked for 20 min in Krebs solution dissolving the compounds of this invention and the amount of biogenic amine released during this period of time was estimate. The compounds of this invention and PPAP, control compound, were dissolved in saline and were administered subcutaneously before 30 min to removing brain sample. For measuring noradrenaline and dopamine, samples were purified on 60 mg alumina containing micro columns (BDH Chemicals Ltd.) according to the method described in J. Pharmacol. Exp. Ther., 138, 360-372 (1962) For measuring serotonin, samples were purified on 15 mg Sephadex G-10 micro columns (Pharmacia). Dopamine, noradrenaline and serotonin were determined by high performance liquid chromatography (Waters 746 data module) with electrochemical detection (Waters 460 electrochemical detector). Waters Resolve 5μ Spherical C18 3.9×150 mm column was used as separating column and triethylamine-phosphate buffer (pH 5.2), containing 200 mg/l octane sulfonate sodium and 18 mg/l EDTA-2 Na with 6% acetonitrile, was used as mobile phase. The release amount of appropriate amine was noted as nmol/g tissue released for 20 min. deference of means tested by Student's t-test and significant level was set at P<.05.
# [2] = test system: dopamine release, substantia nigra; experiment: Release of biogenic amines from brain tissue: dopamine, substantia nigra; format: in vivo, Wistar rats
# Method: as §1
# [3] = test system: dopamine release, tuberculum olfactorium; experiment: Release of biogenic amines from brain tissue: dopamine, tuberculum olfactorium; format: in vivo, Wistar rats
# Method: as §1
# [4] = test system: noradrenaline release, locus coeruleus; experiment: Release of biogenic amines from brain tissue: noradrenaline, locus coeruleus; format: in vivo, Wistar rats
# Method: as §1
# serotonin release, raphe = experiment: Release of biogenic amines from brain tissue: serotonin, raphe; format: in vivo, Wistar rats
# Method: as §1
# human platelet MAO-B = molecular target: T1, human platelet MAO-B (Homo sapiens, UniProt P27338); experiment: biochemical; settings: 10^-5 M; read-out: Inhibition rate of MAO-B
# T1 construct: The suspension was used as enzyme for MAO activity assay in blood platelets; from tissue; host or cells: human blood platelets (frozen, thawed and sonicated platelet rich plasma)
# T1 sequence (P27338 1-520): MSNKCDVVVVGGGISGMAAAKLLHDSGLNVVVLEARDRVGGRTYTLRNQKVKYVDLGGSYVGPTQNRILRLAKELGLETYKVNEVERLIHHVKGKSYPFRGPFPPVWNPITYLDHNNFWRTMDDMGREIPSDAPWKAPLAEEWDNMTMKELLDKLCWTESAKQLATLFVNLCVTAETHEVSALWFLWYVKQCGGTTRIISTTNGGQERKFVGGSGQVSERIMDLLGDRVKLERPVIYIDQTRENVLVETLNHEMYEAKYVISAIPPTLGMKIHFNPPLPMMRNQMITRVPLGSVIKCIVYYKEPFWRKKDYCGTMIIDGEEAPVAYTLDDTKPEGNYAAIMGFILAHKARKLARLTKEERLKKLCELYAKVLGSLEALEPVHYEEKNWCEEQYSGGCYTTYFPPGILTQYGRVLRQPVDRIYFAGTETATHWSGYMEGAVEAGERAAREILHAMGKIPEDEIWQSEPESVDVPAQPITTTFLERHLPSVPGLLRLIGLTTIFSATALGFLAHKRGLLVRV
# Method: Human blood added with 3.8% citric acid was centrifuged at 950 rpm for 10 min and platelet rich plasma (PRP) was obtained. The residual blood cell was centrifuged at 3,000 rpm for 10 min and platelet poor plasma (PPP) was obtained. After blood platelets were measured from a part of PRP, PRP and PPP were frozen at -20° C. They were thawed and were sonicated to be dispersed and suspended when MAO activity was measured. The suspension was used as enzyme for MAO activity assay in blood platelets. In addition, almost all of MAO in blood platelets have been known to be B type.
# MAO-B activity was determined according to the method described in Biochem. Pharmacol., 14, 1684-1685 (1965). […] The mixture was incubated at 37° C. for 5 min. After 80 μl of PRP or PPP was added to it, the mixture was incubated at 37° C. for 20 min. Thereafter, 120 μl of substrate (0.33 mg/ml kynuramine dihydrobromide) was added thereto. After incubation at 37° C. for 30 min, 800 μl of 10% trichloroacetic acid were added to stop the reaction and the solution was centrifuged at 3,000 rpm for 10 min. To 1 ml of the supernatant, 2 ml of 1 N NaOH was added and fluorescence of the solution was measured at Ex 312 nm and Em 380 nm. PRP was prepared to 250,000 cell/μl as amounts of blood platelets with […] phosphate buffer solution and 4-hydroxyquinoline was used as standard for measurement.
# [5] = Toxicity screening using primary cultured hepatocyte (LDH release); format: cell-based, rat; settings: rat, primary hepatocytes, 24 hr, control 0.5% saline or 0.5% DMSO, read-out: Percent control of LDH release
# Method: The hepatocytes was prepared from rat liver by collagenase perfusion method and suspension containing 5×10^5 cells/ml were prepared. After cultivation for 24 hr, the suspension was exchanged to the William's Medium E (GIBCO BRL) containing 10 or 100 μM of the compounds of this invention. After cultivation for 24 hr, the activity of lactate dehydrogenase (LDH) released in the medium was measured.
# [6] = test system: rats reduced learning ability by tetrabenazine; experiment: Conditioned avoidance task in the shuttle box (tetrabenazine-treated rats); format: in vivo, rat; settings: tetrabenazine 1 mg/kg s.c., significance and direction
# Method: The method described in Life Sci., 58, 817-827 (1996) was used. The effects on conditioned avoidance reflex (CARs) was analyzed in the shuttle box using male and female rats (weighing 200-220 g) whose leaning abilities were reduced by treatment of tetrabenazine. The instrument was constructed, according to the device described in Psychopharmacologia 10, 1-5 (1966) by the Research Institute for Electrical Industry (Budapest, Hungary). The male and female rats (weighing 200-220 g) were trained to cross the berrier under the influence of a conditioned stimulus (CS) (light flash and buzzer sounds). […] And the performance which was not related to this condition was noted as an intersignal reaction (IR). The rats were trained with 100 trials per day for 5 days. One trial consisted of 15 sec intertrial interval. The saline solution of tetrabenazine was administered at a dose of 1 mg/kg subcutaneously before one hour prior to the test and then the solution of the compounds of this invention were administered at the doses of 1, 2, 2.5 and 5 mg/kg subcutaneously with the simultaneous administration of tetrabenazine. The nmbers of CARs, EFs and IRs were automatically counted and evaluated by multi-way analysis of variance (ANOVA).
Structure (SMILES),"Release of dopamine, striatum ([1]; 0.25 mg/kg s.c.)","Release of dopamine, striatum ([1]; 1.00 mg/kg s.c.)","Release of dopamine, substantia nigra ([2]; 0.25 mg/kg s.c.)","Release of dopamine, substantia nigra ([2]; 1.00 mg/kg s.c.)","Release of dopamine, tuberculum olfactorium ([3]; 0.25 mg/kg s.c.)","Release of dopamine, tuberculum olfactorium ([3]; 1.00 mg/kg s.c.)","Release of noradrenaline, locus coeruleus ([4]; 0.25 mg/kg s.c.)","Release of noradrenaline, locus coeruleus ([4]; 1.00 mg/kg s.c.)","Release of serotonin, raphe (serotonin release, raphe; 0.25 mg/kg s.c.)","Release of serotonin, raphe (serotonin release, raphe; 1.00 mg/kg s.c.)",inhibition at 10 µM (human platelet MAO-B),"activity at 24 h, 10 µM [5]","activity at 24 h, 100 µM [5]",Condition Avoidance Reflex (CARs) ([6]; 1 mg/kg s.c.),Condition Avoidance Reflex (CARs) ([6]; 5 mg/kg s.c.),Escape Failures (EFs) ([6]; 5 mg/kg s.c.),other results
"CCCNC(CCC)Cc1cccc2ccccc12 (stereo not shown) [Compound No. 5, 1-(1-Naphthyl)-2-propylaminopentane]","4.3 ± 0.14 nmol/g tissue, for 20 min","3.2 ± 0.14 nmol/g tissue, for 20 min","5.6 ± 0.18 nmol/g tissue, for 20 min","4.4 ± 0.16 nmol/g tissue, for 20 min","6.0 ± 0.16 nmol/g tissue, for 20 min","4.6 ± 0.13 nmol/g tissue, for 20 min","3.9 ± 0.25 nmol/g tissue, for 20 min","4.4 ± 0.50 nmol/g tissue, for 20 min","0.425 ± 0.02 nmol/g tissue, for 20 min","0.571 ± 0.01 nmol/g tissue, for 20 min",17.3%,111 ± 4.02%,195 ± 9.16%,–,–,–,–
CCCC(Cc1ccc2ccccc2c1)NCC (stereo not shown) [Compound No. 6],–,"3.6 ± 0.12 nmol/g tissue, for 20 min",–,"6.7 ± 0.26 nmol/g tissue, for 20 min",–,"5.3 ± 0.19 nmol/g tissue, for 20 min",–,"3.1 ± 0.05 nmol/g tissue, for 20 min",–,"0.708 ± 0.07 nmol/g tissue, for 20 min",24.5%,–,–,**** .Arrow-up bold.,**** .Arrow-up bold.,* .dwnarw.,Escape Failures (EFs) ([6]; 1 mg/kg s.c.): * .dwnarw.
"CCCNC(CCC)Cc1cccc2c1OCO2.Cl (stereo not shown) [Compound No. 28, 1-(1,3-Benzodioxol-4-yl)-2-propylaminopentane Hydrochloride]","3.4 ± 0.16 nmol/g tissue, for 20 min","4.0 ± 0.18 nmol/g tissue, for 20 min","6.1 ± 0.35 nmol/g tissue, for 20 min","5.4 ± 0.27 nmol/g tissue, for 20 min","3.8 ± 0.22 nmol/g tissue, for 20 min","4.6 ± 0.22 nmol/g tissue, for 20 min","3.6 ± 0.35 nmol/g tissue, for 20 min","3.7 ± 0.10 nmol/g tissue, for 20 min","1.031 ± 0.03 nmol/g tissue, for 20 min","1.017 ± 0.06 nmol/g tissue, for 20 min",22.2%,93 ± 6.92%,148 ± 6.55%,* .Arrow-up bold.,**** .Arrow-up bold.,*** .dwnarw.,"Condition Avoidance Reflex (CARs) ([6]; 2.5 mg/kg s.c.): **** .Arrow-up bold.; Escape Failures (EFs) ([6]; 2.5 mg/kg s.c.): **** .dwnarw.; Release of dopamine, striatum ([1]; 5.00 mg/kg s.c.): 3.1 ± 0.13 nmol/g tissue, for 20 min; Release of dopamine, substantia nigra ([2]; 5.00 mg/kg s.c.): 4.9 ± 0.17 nmol/g tissue, for 20 min; Release of dopamine, tuberculum olfactorium ([3]; 5.00 mg/kg s.c.): 3.1 ± 0.14 nmol/g tissue, for 20 min; Release of noradrenaline, locus coeruleus ([4]; 5.00 mg/kg s.c.): 3.9 ± 0.10 nmol/g tissue, for 20 min; Release of serotonin, raphe (serotonin release, raphe; 5.00 mg/kg s.c.): 1.436 ± 0.01 nmol/g tissue, for 20 min"
